Experimental data taken from publication PMC9619929, “Conditional Antimicrobial Peptide Therapeutics” (ACS Nano, 2022).

Legend:
Toxicity evaluation = assay type: in vivo, mouse
Method: ABD-AMP conjugates at different doses were intravenously administered to CD-1 mice. The mice were closely monitored for 24 h before euthanization unless significant morbidity was observed that necessitated early euthanization. Blood samples were drawn via cardiac puncture and dispensed into serum separator tubes (BD Microtainer). The samples were left to clot for at least 30 min and spun at 15 000 rcf for 1.5 min to separate serum. The serum samples were frozen in a −20 °C freezer and submitted for serum chemistry analysis by MIT Diagnostic Laboratory (MIT Division of Comparative Medicine). Serum levels of pro-inflammatory cytokine IL-6 and TNF-α were quantified using ELISA MAX standard sets (BioLegend, CA, U.S.A.) following the manufacturer’s protocol. Organs were harvested, fixed in 10% formalin at RT for 24 h, sectioned into 5 μm slices, and stained with H&E for analysis. The slides were evaluated by a veterinary pathologist blind to the treatment groups and were digitized using a Pannoramic digital slide scanner at 20× magnification.

Pharmacokinetics study = assay type: in vivo, mouse; conditions: 15 nmol IV, CD-1 mice, blood, n = 4
Method: ABD-AMP-Cy7 conjugates (15 nmol) were intravenously administered to CD-1 mice. At different time intervals, blood samples (5 μL) were collected via saphenous vein bleeding using heparin-coated capillary tubes. Blood samples were diluted 10-fold in PBS supplemented with Halt protease inhibitor cocktail and EDTA and centrifuged to remove cells. The supernatants were used to quantify conjugate concentration via SDS-PAGE analysis.

[1] = mouse, in vivo, iv
Method: All animal studies were approved by the Massachusetts Institute of Technology’s Committee on Animal Care (MIT protocol 0619-034-22). CD-1 mice (11–12 weeks old) were rendered neutropenic by intraperitoneal injections of cyclophosphamide at 4 d (150 mg/kg) and 1 d (100 mg/kg) prior to infection. PAO1 inoculation was performed by intratracheal instillation of PAO1 suspension (2 × 10^5 cfu in 50 μL PBS) via a 22G blunt-end catheter (EXCEL International). For BALF collection, the mice were first euthanized. An incision into the trachea was made with a needle puncture where lavage was performed with PBS (1 mL) via a catheter-fitted syringe. BALFs were centrifuged to remove cells, aliquoted, and stored in a −20 °C freezer.
ABD-AMP-Cy7 conjugates (15 nmol) were intravenously administered at 6 h post infection. The mice were euthanized 2 h after and organs were harvested for imaging with an Odyssey CLx imager. After imaging, organs were homogenized in PBS supplemented with Halt protease inhibitor cocktail (ThermoFisher Scientific, MA, U.S.A.) using a gentleMAC dissociator (Miltenyi Biotec, CA, U.S.A.). The homogenates were pelleted and the supernatants were used for SDS-PAGE analysis.

Compound | Signs of distress over the observation period (Toxicity evaluation; 10 mg/kg (AMP eq) IV, 24 h) | Histology evaluation of organs (H&E) (Toxicity evaluation; 10 mg/kg (AMP eq) IV, 24 h, blinded veterinary pathologist, n = 3) | Mice that did not survive to the study end point (Toxicity evaluation; 10 mg/kg IV, 24 h) | Serum pro-inflammatory cytokine IL-6 (Toxicity evaluation; 10 mg/kg IV, ELISA) | Serum levels of ALT, AST, BUN and creatinine (Toxicity evaluation; IV, 5 and 10 mg/kg AMP eq, 24 h, (D)Pex result at 10 mg/kg, n = 3–5) | Maximum tolerated dose (MTD) (Toxicity evaluation; IV, CD-1 mice, monitored 24 h) [mg/kg] | AUC (Pharmacokinetics study; SDS-PAGE Cy7 quantification) [µM·h] | t1/2,α (Pharmacokinetics study) [min] | t1/2,β (Pharmacokinetics study) [min] | AUC ((D)Pex-Cy7), kidneys [1] [% ID*h/g] | AUC ((D)Pex-Cy7), liver [1] [% ID*h/g] | AUC ((D)Pex-Cy7), lungs [1] [% ID*h/g] | AUC ((D)Pex-Cy7), spleen [1] [% ID*h/g]
CC[C@@H](C)[C@@H](NC(=O)CN)C(=O)NCC(=O)N[C@H](CCCCN)C(=O)N[C@H](Cc1ccccc1)C(=O)N[C@H](CC(C)C)C(=O)N[C@H](CCCCN)C(=O)N[C@H](CCCCN)C(=O)N[C@H](C)C(=O)N[C@H](CCCCN)C(=O)N[C@H](CCCCN)C(=O)N[C@H](Cc1ccccc1)C(=O)NCC(=O)N[C@H](CCCCN)C(=O)N[C@H](C)C(=O)N[C@H](Cc1ccccc1)C(=O)N[C@@H](C(=O)N[C@H](CCCCN)C(=O)N[C@@H](C(=O)N[C@H](CC(C)C)C(=O)N[C@H](CCCCN)C(=O)N[C@H](CCCCN)C(N)=O)[C@H](C)CC)C(C)C [(D)Pex] | signs of distress | Pathological damage was observed in kidneys and spleen | 3 of 5 | significantly elevated | elevated beyond a normal reference range | 5 | – | – | – | – | – | – | –
Azidoacetyl–GiGkflkkakkfGkafvkilkk–K(Cy7)–CONH2 [(D)Pex-Cy7, free unconjugated Cy7-labelled (D)Pex control] | – | – | – | – | – | – | 2.08 | 35.3 | 35.6 | 14.1 | 112 | 5.29 | 23.5
